pKi: −log10 of the molar value.
Key:
[1] = molecular target: T1, Delta-type opioid receptor (Rattus norvegicus, UniProt P33533); assay: Compound was evaluated for the binding affinity towards Opioid receptor delta 1 in rat brain homogenates using [3H]naltrindole as radioligand; type: tissue-based
[2] = molecular target: T1, Delta-type opioid receptor; assay: Compound was evaluated for the binding affinity towards Opioid receptor delta 1 in rat brain homogenates using [3H]DIDI as radioligand; type: tissue-based
Cavia porcellus [3] = organism: Cavia porcellus; assay: Compound was evaluated for the percent inhibition of electrically evoked twitch height at 10 uM concentration in guinea pig ileum (GPI); type: functional
Mus musculus = organism: Mus musculus; assay: Compound was evaluated for the percent inhibition of electrically evoked twitch height at 10 uM concentration in mouse vas deferens (MVD); type: functional
[4] = molecular target: Kappa-type opioid receptor (Rattus norvegicus, UniProt P34975); assay: Compound was evaluated for the binding affinity towards Opioid receptor kappa 1 in rat brain homogenates using [3H]U-69593 as radioligand; type: tissue-based
[5] = molecular target: Kappa-type opioid receptor (Mus musculus) (UniProt P33534)
Description: Tested for antagonist activity against Opioid receptor kappa 1 in mouse vas deferens preparation by using C1977 as antagonist

Mu-type opioid receptor = Mu-type opioid receptor (Rattus norvegicus, UniProt P33535); assay: Compound was evaluated for the binding affinity towards mu opioid receptor in rat brain homogenates using [3H]DAMGO as radioligand; type: tissue-based
Cavia porcellus [6] = organism: Cavia porcellus; assay: Compound was evaluated for the percent inhibition of twitch height at 10 uM concentration in guinea pig ileum assay; type: functional

Mu-type opioid receptor, sequence (P33535 whole entry): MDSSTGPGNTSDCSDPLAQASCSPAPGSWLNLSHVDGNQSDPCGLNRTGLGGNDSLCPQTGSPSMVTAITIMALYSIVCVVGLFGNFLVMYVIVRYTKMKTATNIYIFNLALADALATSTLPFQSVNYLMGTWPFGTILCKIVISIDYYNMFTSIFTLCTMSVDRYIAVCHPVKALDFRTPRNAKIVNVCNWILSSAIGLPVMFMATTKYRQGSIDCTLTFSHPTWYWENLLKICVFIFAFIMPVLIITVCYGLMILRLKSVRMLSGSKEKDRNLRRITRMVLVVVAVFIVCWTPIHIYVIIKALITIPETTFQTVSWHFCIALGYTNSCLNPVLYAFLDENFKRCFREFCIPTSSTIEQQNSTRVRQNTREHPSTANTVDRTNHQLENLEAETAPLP
Kappa-type opioid receptor, sequence (P34975 whole entry): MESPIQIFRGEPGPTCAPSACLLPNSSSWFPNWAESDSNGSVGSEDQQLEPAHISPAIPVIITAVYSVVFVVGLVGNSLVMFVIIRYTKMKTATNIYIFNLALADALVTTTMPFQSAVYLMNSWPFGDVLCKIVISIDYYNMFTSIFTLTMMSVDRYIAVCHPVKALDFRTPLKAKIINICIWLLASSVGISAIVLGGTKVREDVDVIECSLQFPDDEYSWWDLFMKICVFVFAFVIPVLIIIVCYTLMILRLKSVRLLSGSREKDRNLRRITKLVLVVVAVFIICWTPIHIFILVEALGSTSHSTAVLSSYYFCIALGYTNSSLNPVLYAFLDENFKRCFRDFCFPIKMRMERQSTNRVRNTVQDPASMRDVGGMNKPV
T1 sequence (P33533 whole entry): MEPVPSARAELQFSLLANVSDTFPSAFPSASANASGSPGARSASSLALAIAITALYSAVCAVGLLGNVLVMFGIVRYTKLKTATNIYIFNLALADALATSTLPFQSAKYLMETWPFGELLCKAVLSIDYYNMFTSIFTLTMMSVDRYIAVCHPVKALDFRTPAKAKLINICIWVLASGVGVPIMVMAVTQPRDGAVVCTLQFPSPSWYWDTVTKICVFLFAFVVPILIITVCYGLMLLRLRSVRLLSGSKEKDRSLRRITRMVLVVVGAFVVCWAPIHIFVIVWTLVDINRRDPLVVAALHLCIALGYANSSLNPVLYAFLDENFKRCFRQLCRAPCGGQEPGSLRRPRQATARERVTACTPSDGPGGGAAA
Kappa-type opioid receptor (Mus musculus), sequence (P33534 whole entry): as the sequence (P34975 whole entry) above, with E11D, A17S, P51S, V308A counted along it

SMILES	pKi [1]	pKi [2]	inhibition at 10 µM (Cavia porcellus [3]) [%]	inhibition at 10 µM (Mus musculus) [%]	pKi [4]	Ke [5] [nM]	pKi (Mu-type opioid receptor)	inhibition at 10 µM (Cavia porcellus [6]) [%]
Oc1ccc2c3c1O[C@H]1c4[nH]c5ccccc5c4C[C@@]4(O)[C@@H](C2)N(CC2CC2)CC[C@]314 [NALTRINDOLE]	9.48	10.05						
CCO[C@@]12Cc3c([nH]c4ccccc34)[C@]3(C)Oc4c(O)ccc5c4[C@@]31CCN(CC1CC1)C2C5	9.11	7.85	32	23	7.23	529	7.41	
C=CCN1CC[C@]23c4c5ccc(O)c4O[C@@]2(C)c2[nH]c4ccccc4c2C[C@@]3(OCC)[C@H]1C5	7.97	7.52			6.12		6.18	
CCO[C@@]12Cc3c([nH]c4ccccc34)[C@]3(C)Oc4c(O)ccc5c4[C@@]31CCN(C)[C@@H]2C5	8.24	8.06			6.54		6.15	21
